Earlier results on three compounds are cited in article PMC6966871 (Journal of Hematology & Oncology, 2020).

Read-outs that look alike come from different tables or passages of the source.

Details of series [1]: method as in PMID 30718102. The conditions noted are these: cited from earlier work.
Details of series [2]: method as in PMID 30724423. The following applies: cited from earlier work.
The subject of the next series is EGFR-mutant NSCLC. The arrangement: method as in PMID 30156984. The conditions noted are these: in combination with gefitinib, EGFR-mutant NSCLC progressed on previous gefitinib; cited from earlier work.
The test system of another series is METex14-altered NSCLC. The arrangement: method as in doi:10.1200/JCO.2016.34.15_suppl.108. The conditions noted are these: METex14-altered NSCLC patients; cited from earlier work.

Regarding `COc1cc2nccc(Oc3ccc(NC(=O)C4(C(=O)Nc5ccc(F)cc5)CC4)cc3)c2cc1OC` [cabozantinib], the “rate of discontinuation due to an AE” value in series [1] (Japanese NSCLC patients, phase 1) is given as 10%. In series [1], the “AE: diarrhea” value is given as 78%, the “AE: hypertension” value is recorded as 87%, the “AE: increased ALT” value is given as 95% and the “AE: increased AST” value is given as 95%. Moreover, in series [1], the “AE: palmar-plantar erythrodysesthesia” value is reported as 100% and the “patients who experienced ≥ grade 3 AEs” value is reported as 70%. For the same compound, the “patients with dose reduction” value in series [1] (dose-escalation cohorts, about) was 30–40%. The patients with discontinuation in series [1] (dose-escalation cohorts) was 13%.
`CNC(=O)c1ccc(-c2cnc3ncc(Cc4ccc5ncccc5c4)n3n2)cc1F` [capmatinib]: the “patients with one or more dose interruptions” value in series [2] (21 patients) was 47.7%. In series [2], the “AE: decreased appetite” value is reported as 41%, the “AE: diarrhea” value is 25%, the “AE: increased blood creatinine” value is 52% and the “AE: nausea” value is listed as 48. Also, in series [2], the “AE: vomiting” value is reported as 39%, the “AEs leading to discontinuation” value is given as 9% and the “adverse events leading to dose adjustment and/or interruption” value is reported as 59%. The “patients with dose interruption only once” value in series [2] (nine patients) was 20.5%. Besides, in the series on EGFR-mutant NSCLC, the “overall ORR” value was 27%.
As to `C[C@@H](Oc1cc(-c2cnn(C3CCNCC3)c2)cnc1N)c1c(Cl)ccc(F)c1Cl` [Crizotinib], in the series on METex14-altered NSCLC, the unconfirmed response rate result was “up to 44%”.
